According to PMC6271730, “Bioactive Secondary Metabolites from Phomopsis sp., an Endophytic Fungus from Senna spectabilis” (Molecules, 2014):
Read-outs that look alike come from different tables or passages of the source.

Molecular target: T1, Myeloperoxidase (MPO, EC 1.11.1.7) (Homo sapiens, UniProt P05164)
T1 construct: commercial purified enzyme (Planta Natural Products, Vienna); mature heavy and light chains come from one precursor
Assay: MPO chlorination activity, taurine chloramine / TMB oxidation at […] nm
Format: biochemical

T1 sequence (P05164 165-273): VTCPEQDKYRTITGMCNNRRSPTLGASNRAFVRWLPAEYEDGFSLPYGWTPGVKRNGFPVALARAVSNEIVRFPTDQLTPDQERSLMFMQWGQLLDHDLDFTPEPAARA
T1 sequence (P05164 279-745): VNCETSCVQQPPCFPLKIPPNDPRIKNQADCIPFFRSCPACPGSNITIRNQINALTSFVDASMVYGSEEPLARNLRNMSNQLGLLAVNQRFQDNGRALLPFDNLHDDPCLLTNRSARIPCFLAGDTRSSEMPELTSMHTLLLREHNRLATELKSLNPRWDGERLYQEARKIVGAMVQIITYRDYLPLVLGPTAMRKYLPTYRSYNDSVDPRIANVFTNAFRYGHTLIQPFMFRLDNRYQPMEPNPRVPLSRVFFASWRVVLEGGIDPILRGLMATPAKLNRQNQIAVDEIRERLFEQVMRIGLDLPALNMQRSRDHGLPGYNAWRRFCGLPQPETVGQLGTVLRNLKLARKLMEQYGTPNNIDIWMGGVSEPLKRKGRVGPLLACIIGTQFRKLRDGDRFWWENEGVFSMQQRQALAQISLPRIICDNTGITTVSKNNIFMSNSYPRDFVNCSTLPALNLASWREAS

SMILES	IC50 (read-out: IC50)	IC50
COc1cc(O)c2c(=O)oc3cc(O)cc(C)c3c2c1 [compound 4, alternariol monomethyl ether]	> 50 µM	
Cc1cc(O)cc2oc(=O)c3c(O)cc(O)cc3c12 [compound 5, alternariol]		> 50 µM
